This is an account of results in US6613756B2 (Wisconsin Alumni Research Foundation, priority 2000, dated 2003).

Structures are written as SMILES. Counter-ions that a name gives are not always drawn. Some results are limits rather than exact numbers.

One series deals with collagenase. To be noted: cited from earlier work.
Series [1] has as its system MOG-specific T-cell response. In words: MOG-specific T-cell response of draining lymph node cells from treated rats. It is filed as cell-based, rat. To be noted: high-dose MOG; minocycline day 1 to 10; 10 d.p.i. The method, then: Draining lymph nodes and spleens were removed 10 days post-immunization (d.p.i.) and proliferation assays performed in flat-bottomed 96-well tissue culture plates in a total volume of 200 μl using either 5×10^5 lymph node or spleen cells (Raine, C. S., et al., supra, 1999). Antigen specific proliferation was assessed by the incorporation of ^3H-thymidine (10 μCi/well) during the final 18 hours of a 72 hour culture period using a Packard Matrix 96 Direct Beta counter.

For series [2], the system named is DA rats with MOG-induced EAE. Kind of series: Low-dose MOG (10 μg rMOG/CFA) immunization paradigm of relapsing remitting EAE. The class given is in vivo, rat. To be noted: for % Of Dorsal Column Demyelinated / % Of Mortality / Mean Cumulative Score / % Of Incidence: 10 μg rMOG/CFA. As for the experimental part: Experiments were performed on 6-8 week old female DA rats obtained from Harlan-Sprague Dawley, Indianapolis, Ind. or Harlan-Winkelmann, Germany. During the observation period, rats were housed in a light- and temperature-controlled environment and were permitted free access to food and water. The recombinant extracellular immunogobulin domain of MOG was expressed in E. coli and purified as described previously (Raine, C. S., et al., Ann. Neurol. 46:144-160, 1999).
Rats were immunized sub-cutaneously (s.c.) at the base of the tail with either 10 μg MOG in complete Freund's adjuvant (CFA) or 100 μg MOG emulsified in incomplete Freund's adjuvant (IFA) (Difco, Detroit, Mich.) in a total volume of 100 μl. Animals were weighed and examined daily for clinical signs of EAE that was scored on the following scale: 0.5, partial loss of tail tone; 1, complete tail atony; 2, hind limb weakness; 3, hind limb paralysis; 4, moribund; 5, dead. […]
(§1) Matched unimmunized, naive groups were also included: N^pbs-PBS-treated animals (n=10), N^tr1-minocycline-treated from experimental day 10 (n=10), N^tr2-minocycline-treated from experimental day 13 (n=5), N^tr3 minocycline-treated from experimental day 13, with twice daily injections during the first two days followed by single injection throughout the remaining treatment period (n=5).
Animals were deeply anesthetized with pentobarbital and perfused transcardially with Ringer's followed by 4% paraformaldehyde. The brain and spinal cord were removed and prepared for paraffin and epon embedding or cryo-protected in 30% sucrose. Paraffin sections were used to assess the degree of inflammation (hematoxylin and eosin) and one-micron semithin sections were used to estimate the demyelination in the spinal cord (toluidine blue). Areas with inflammatory infiltrates or demyelinating lesions in the dorsal funiculus of spinal cord were scored using a CCD72 camera to collect digital images that were analyzed with the Microcomputer Imaging Device (MCID) software from Imaging Research Inc. (St. Catherines, Ontario). Measurements for cell infiltrates and demyelination were expressed as percent of the total white matter area of the dorsal funiculus. To determine the profile of inflammatory infiltrates within lesions 10 μm cryostat sections of thoracic-lumbar spinal cord were immunolabelled for MHC II (Harlan Sera-Lab), CR3, CD45 (Serotec), GFAP (Dako), CD3 (PharMingen) and MMP-2 (Oncogne Research Products) protein expression. Primary antibodies were detected using a biotinylated secondary antibodies and the avidin: biotin enzyme complex technique (Vector Laboratories). Areas with immunolabelling-defined inflammatory infiltrates were scored using a semi-quantitative scale: 0-no inflammatory infiltrates or lesions, 1-25%, 2-50%, 3-75%, and 4-100% of the dorsal funiculus.
Statistical analysis of clinical scores was performed by averaging them over all times of the treatment and subtracting the first 11 days after immunization when clinical score in all groups was 0. Statistical significance was established using a repeated measures analysis where clinical score between treatments was compared from day 12 to 42 building in an auto-correlation of the error term. ANOVA and Student's t-test were used to establish the difference between experimental groups in all other examined parameters. Statistically significant differences were presented as: * for P<0.05, ** for P<0.01, and *** for P<0.001.

Series [3] relates to DA rats with MOG-induced EAE. Kind of series: High-dose MOG (100 μg rMOG/IFA) immunization paradigm of EAE. It is filed as in vivo, rat.
Experimental: Statistical analysis of clinical scores was performed by averaging them over all times of the treatment and subtracting the first 11 days after immunization when clinical score in all groups was 0. Statistical significance was established using a repeated measures analysis where clinical score between treatments was compared from day 12 to 42 building in an auto-correlation of the error term. ANOVA and Student's t-test were used to establish the difference between experimental groups in all other examined parameters. […]
In another series the test system is naive DA rats. In words: Minocycline treatment of naive, non-immunized animals. The class given is in vivo, rat.
Source text: In the high-dose MOG immunization paradigm rats were separated into two groups: EAE^pbs-phosphate-buffered saline (PBS)-treated rats (n=5) from day 1 post-immunization and EAE^tr-minocycline-treated rats (n=6) from day 1 post-immunization.
as §1

Where [4] appears, read: minocycline from day 10 (EAEtr1).
[5] abbreviates: minocycline from day of onset (EAEtr2).
Setting [6] is: minocycline from day of onset, double-dose (EAEtr3).

On to `NC(=O)C1=C(O)C[C@@H]2C[C@@H]3Cc4cccc(O)c4C(=O)C3=C(O)[C@]2(O)C1=O` [CMT-3, 6-demethyl 6-deoxy 4-dedimethylamino tetracycline], for which the anti-collagenase activity entry in the series with collagenase is recorded as “persistent anti-collagenase activity”.
In the case of `CC1(O)c2cccc(O)c2C(=O)C2=C(O)C3(O)C(=O)C(C(N)=O)=C(O)CC3CC21` (stereo not drawn) [CMT-1, 4-dedimethylamino tetracycline], the anti-collagenase activity entry in the series with collagenase is “persistent anti-collagenase activity”.
For the compound `CN(C)c1ccc(O)c2c1C[C@H]1C[C@H]3[C@H](N(C)C)C(O)=C(C(N)=O)C(=O)[C@@]3(O)C(O)=C1C2=O` [Minocycline, Minocycline hydrochloride], the “antigen specific proliferative response of draining lymph node cells” value in series [1] is “no significant effect”. Also, the “% Of Dorsal Column Demyelinated” value in series [2] (setting [4]) came to 5.94%; in series [2] (setting [5]), 0.12%; in series [2] (setting [6]), 0.04%; in series [3] (minocycline from day 1), 6.25%. In addition, the “% Of Mortality” value in series [2] (setting [4]) was 0%; in series [2] (setting [5]) it was 0%; in series [2] (setting [6]) it was 0%; in series [3] (minocycline from day 1, terminated day 20), 0%. Moreover, the “Mean Cumulative Score” value in series [2] (setting [4]) was determined as 7.43; in series [2] (setting [5]), 26.25; in series [2] (setting [6]), 10.12; in series [3] (minocycline from day 1, sum of daily scores of all animals / number of animals) it was 5.5. For the same compound, the “% Of Incidence” value stood at 40% in series [2] (minocycline from day 10 (EAEtr1), 42 days); 100% in series [2] (setting [5]); 100% in series [2] (minocycline from day of onset, double-dose first two days (EAEtr3)); 80% in series [3] (minocycline 45 mg/kg i.p. daily from day 1, terminated day 20). Besides, the “maximal clinical disease grade reached” value in series [2] (twice daily for first two days from onset, then once daily (EAEtr3)) is listed as no more than 1. The adverse effects result with naive DA rats is on record as “not found to induce any adverse effects”.
